Measured values from patent publication US5935995A, “Prodrugs for the therapy of tumors and inflammatory disorders” (Heochst Aktiengesellschaft, priority 1996, dated 1999).
pIC50: −log10 of the molar value. Like-named read-outs stand apart in the source and are kept apart here.

Legend:
[1] = Stability in solution in anhydrous DMSO; format: physicochemical
Method: The prodrug F 373 is stable in solution in anhydrous DMSO. To investigate the cleavability, […] of F 373 solution (5 mg/ml in DMSO) were treated with 180 ml of 0.02 M phosphate buffer pH 7.2 and 10 ml of E. coli β-glucuronidase (Sigma) (330 mg/ml) and the mixture was incubated at 37° C. 25 ml batches were diluted with 225 ml of 0.1 M phosphate buffer pH 3.0 (85%) and acetonitrile (15%) and immediately analyzed with the aid of the following HPLC system.

LoVo cells = assay: Cytotoxicity on LoVo tumor cells in the presence and absence of β-glucuronidase (MTT); format: cell-based

With `CN(C(=O)Oc1ccc(N(CCCl)CCCl)cc1)c1cc([N+](=O)[O-])ccc1O[C@@H]1O[C@H](C(=O)O)[C@@H](O)[C@H](O)[C@H]1O` [F 373, 2-[N-Methyl-N-[4-(N,N'-bis(2-chloroethyl)amino)phenyloxycarbonyl]-amino]-4-nitrophenyl-β-D-glucuronic acid] the stability in solution [1] was “stable”, the pIC50 (LoVo cells; read-out: IC50 with β-gluc.) was 5.20 and the pIC50 (LoVo cells; read-out: IC50 without β-gluc.) was < 3.30.
With `C=CC1CN2CCC1CC2C(OC(=O)N(C)c1cc([N+](=O)[O-])ccc1OC1OC(C(=O)O)C(O)C(O)C1O)c1ccnc2ccc(OC)cc12` (stereo not drawn) [F 391] the pIC50 (LoVo cells; Homo sapiens, LoVo, 65 h, read-out: IC50 with β-gluc.) was 3.95 and the pIC50 (LoVo cells; Homo sapiens, LoVo, 65 h, read-out: IC50 without β-gluc.) was < 3.40.
With `CN(C(=O)OCCN(CCO)c1nc(N2CCCCC2)c2nc(N(CCO)CCO)nc(N3CCCCC3)c2n1)c1cc([N+](=O)[O-])ccc1O[C@@H]1O[C@H](C(=O)O)[C@@H](O)[C@H](O)[C@H]1O` [F 392] the pIC50 (LoVo cells; Homo sapiens, LoVo cells, 65 h, with β-glucuronidase (50 mg/mil final concentration), read-out: IC50 with β-gluc.) was 4.31 and the pIC50 (LoVo cells; Homo sapiens, LoVo cells, 65 h, without β-glucuronidase, read-out: IC50 without β-gluc.) was < 3.40.
`OCCN(CCO)c1nc(N2CCCCC2)c2nc(N(CCO)CCO)nc(N3CCCCC3)c2n1` [dipyridamole, reference compound] gave a pIC50 (LoVo cells; Homo sapiens, LoVo, parent toxic compound tested alone, read-out: IC50 of the toxic compound tested alone) of 4.37.
Work on `C=C[C@H]1C[N@@]2CC[C@H]1C[C@H]2[C@H](O)c1ccnc2ccc(OC)cc12` [quinine, reference compound] yielded a pIC50 (LoVo cells; Homo sapiens, LoVo, read-out: IC50 of the toxic compound tested alone) of 3.99.
